Assay results as given in article PMC11378298 (ACS Chemical Neuroscience, 2024).

Tests used:
HT-22 cells = assay: Cytotoxicity in HT-22 cells (PrestoBlue); settings: whole range of concentrations 0.1–100 μM
Description: (§1) The compounds were tested at 5 concentrations (0.1, 1, 10, 50, and 100 μM).
Mouse Hippocampal Neuronal Cell Line (HT-22) was a generous gift from Dr Bartosz Pomierny of the Department of Biochemical Toxicology, Jagiellonian University Medical College, Krakow, Poland. Cells were cultured in Dulbecco’s modified Eagle’s Medium—high glucose (DMEM, Glutamax Thermo Fisher) supplemented with 10% heat-inactivated fetal bovine serum (Thermo Fisher), 100 IU/mL penicillin (Merck) and 100 μg/mL streptomycin (Merck). Cells were cultured in flasks (area 175 cm^2, Nunc), and incubated at 37 °C, 5% CO2. For the measurement of cell viability and neuroprotective effect against okadaic acid cells were placed in a 96-well culture plate (2 × 10^4 cells per well, Falcon). Before the tests, cells were grown for 24 h in the incubator (37 °C, 5% CO2).
(§2) Cell viability was evaluated using the PrestoBlue reagent (ThermoFisher), according to the manufacturer’s procedures.[87] Following 24 h of incubation with the tested molecule, PrestoBlue reagent was added to a microplate well in an amount equal to one-tenth of the remaining medium volume. The resulting mixture was incubated for 15 min at 37 °C, and the fluorescence intensity (EX 530 nm; EM 580 nm) was measured in the plate reader POLARstar Omega, (BMG Labtech).

[1] = Cytotoxicity in BV-2 cells (PrestoBlue); settings: mouse, BV-2 microglial cells
Description: as §1
Mouse microglial cells (BV-2) were a generous gift from Professor Bozena Kaminska-Kaczmarek of the Laboratory of Molecular Neurobiology, Neurobiology Center, Nencki Institute of Experimental Biology, Polish Academy of Sciences, Warsaw, Poland. Cells were cultured in Dulbecco’s modified Eagle’s Medium-high glucose (DMEM, Glutamax Thermo Fisher) supplemented with 10% heat-inactivated fetal bovine serum (Thermo Fisher), 100 IU/mL penicillin (Merck) and 100 μg/mL streptomycin (Merck). Cells were cultured in flasks (area 175 cm^2, Nunc), and incubated at 37 °C, 5% CO2. To evaluate the level of NO, IL-6, and TNF-α and the effectiveness of the compounds tested, BV-2 microglia cells were cultured in a 96-well culture plate (5 × 10^4 cells per well, Falcon). For the measurement of cell viability and cell membrane damage, cells were placed in a 96-well culture plate (2 × 10^4 cells per well, Falcon). Before the tests, cells were grown for 24 h in the incubator (37 °C, 5% CO2).
as §2

BV-2 cell line [2] = assay: NO release in LPS-treated BV-2 cells (DAN fluorometric assay); type: cell-based, mouse; settings: compound 10 μM; LPS 100 ng/mL
Description: (§3) Cell viability was determined by Presto Blue assay after 24 h. (B) Effect of compounds 11, 34, and 36 (0.1, 1, 10 μM) on NO-release (%) in LPS-treated (100 ng/mL) BV-2 cell line. NO-release was measured using a fluorometric assay with 2,3-diaminonaphthalene (DAN). (C, D) Effects of compounds 11 and 36 (0.1, 1, 10 μM) on IL-6 and TNF-α release in LPS-treated (100 ng/mL) BV-2 cell line. The IL-6 and TNF-α levels were measured using LANCE Ultra TR-FRET Detection Kit (PerkinElmer). Statistical analysis was performed using GraphPad Prism 9.0.0. All values are expressed as mean with SD. Differences among groups were evaluated by one-way ANOVA followed by posthoc analysis (Dunnett’s multiple comparison tests) vs. control group (LPS on BV-2 cells and okadaic acid on HT-22 cells) and were considered statistically significant if p < 0.05 (*p < 0.05, **p < 0.01, ***p < 0.001, and ****p < 0.0001).
An important role in the pathogenesis of AD has been attributed to neuroinflammation resulting from the activation of astrocytes and microglial cells.[55] These processes lead to increased production of proinflammatory cytokines such as TNF-α or IL-6 that activate processes, e.g., tau hyperphosphorylation, causing injury and cell death.[56] A standard model of neuroinflammation is based on lipopolysaccharide-stimulated BV-2 microglial cells. In this study, we used this model to evaluate the anti-inflammatory properties of compounds 11, 34, and 36.[57] Our evaluation focused on monitoring the levels of key inflammatory markers, including nitric oxide (NO, Figure 6B) and cytokines, TNF-α and IL-6 (Figure 6C,D).
The cells were pretreated with tested compounds for 1 h. […]
The NO level in the culture supernatants was measured using 2,3-diaminonaphthalene (DAN) reagent according to the method of Nussler et al.[88] After 15 min of incubation at room temperature, the fluorescence intensity (EX 360; EM 440 nm) was measured using a microplate reader POLARstar Omega, (BMG Labtech). The values of nitric oxide were calculated as a percentage of control (maximal response of LPS).

BV-2 cell line [3] = assay: TNF-α release in LPS-treated BV-2 cells (LANCE Ultra TR-FRET); type: cell-based, mouse; settings: compound 10 μM; LPS 100 ng/mL
Description: as §3, with “0.0001). […]” for “0.0001).”
The IL-6 and TNF-α levels in the culture supernatants were measured using LANCE Ultra TR-FRET Detection Kit (PerkinElmer), according to manufacturer protocol. […] After 1 h of incubation of IL-6 and 3h for incubation of TNF-α in the dark, at 22 °C, the plates were read with an EnVision plate reader (PerkinElmer) with the excitation wavelength at 320 nm, the donor emission at 615 nm, and the acceptor emission at 660 nm. […]

in vitro = settings: PAMPA
GSK-3β = GSK-3β (Homo sapiens, UniProt P49841); assay: Kinetics of GSK-3β inhibition (ADP-Glo, varied ATP); type: biochemical; parameters: purchased Promega
GSK-3β, sequence (P49841 whole entry): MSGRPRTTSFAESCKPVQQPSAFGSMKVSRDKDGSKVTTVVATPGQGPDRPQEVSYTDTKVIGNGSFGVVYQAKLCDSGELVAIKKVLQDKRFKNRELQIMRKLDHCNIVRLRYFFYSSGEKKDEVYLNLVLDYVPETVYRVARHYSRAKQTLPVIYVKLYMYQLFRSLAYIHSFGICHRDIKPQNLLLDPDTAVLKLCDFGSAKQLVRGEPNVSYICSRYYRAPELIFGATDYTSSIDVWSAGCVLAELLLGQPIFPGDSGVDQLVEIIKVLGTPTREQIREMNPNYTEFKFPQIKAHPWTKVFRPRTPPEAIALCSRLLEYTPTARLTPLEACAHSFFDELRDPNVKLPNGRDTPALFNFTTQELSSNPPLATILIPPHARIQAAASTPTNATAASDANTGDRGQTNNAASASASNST
Source text: Each data point was collected in triplicate.
Kinetics of GSK-3β inhibition by compound 36
diverse ATP concentrations to determine the mechanism of enzyme - inhibitor interaction. The
(1 picture or pasted object on this page, not shown here) […]

Row | SMILES | cell viability in HT-22 cells (HT-22 cells) | IC50 at 24 h [1] | NO release (BV-2 cell line [2]) | TNF-α release (BV-2 cell line [3]) | Papp (in vitro) | Ki (GSK-3β) | type of inhibition (GSK-3β; Lineweaver–Burk and Cornish–Bowden plots, varied ATP)
1 | O=C(Nc1cc(-c2ccc(-c3ncon3)s2)ccn1)C1CC1 [Compound 36, N-(4-(5-(1,2,4-Oxadiazol-3-yl)thiophen-2-yl)pyridin-2-yl)cyclopropanecarboxamide] | No significant decrease in cell viability | 89.3 ± 4.9 µM | significantly reducing the release | significantly reducing the release | 9.4 ± 0.89 ×10⁻⁶ cm/s | 0.0603 µM | ATP-competitive
2 | NC(=O)N1CC=C(c2ccnc(NC(=O)C3CC3)c2)C1 [Compound 11, 3-(2-(Cyclopropanecarboxamido)pyridin-4-yl)-2,5-dihydro-1H-pyrrole-1-carboxamide] |  | 23.4 ± 1.7 µM | significantly reducing the release | significantly reducing the release | 0.53 ± 0.82 ×10⁻⁶ cm/s |  | 
